Assay results from patent US20210069213A1, “COMPOSITION AND METHOD OF TREATMENT FOR DRY A.M.D. (AGE RELATED MACULAR DEGENERATION)” (EYE CO PTY LTD, priority 2018, published 2021).
Entries after “also recorded” stand apart in the source; their conditions may differ.

Tested on: Sprague-Dawley rats exposed to bright continuous light
Test: Light damage (photo-oxidative damage) model of dry AMD, corticosteroid treatment vs vehicle
Type: in vivo
Details: after photo-oxidative damage; FA compared with TA; listed as FA
Description: All experiments conducted were in accordance with the ARVO Statement for the Use of Animals in Ophthalmic and Vision Research. Albino Sprague-Dawley (SD) rats aged from […] were exposed to bright continuous light (BCL) at 1000 lux. The rats were born and reared in dim cyclic light conditions (12 h light:12 h dark) with an ambient light level of approximately 5 lux. Exposure to BCL was conducted on animals aged between post-natal days (P) 90-150. Prior to BCL exposure, rats were dark adapted for a minimum of 15 h then transferred to individual cages designed to allow light to enter unimpeded. There were no areas of shadow in the cages; pupillary dilation was not performed. BCL exposure commenced consistently at 9:00 am, and was achieved using a cold-white fluorescent light source positioned above the cages (18 W, Cool White; TFC), at an intensity of approximately 1000 lux at the cage floor. BCL exposure was maintained over a period of 24 h, after which time the animals were immediately returned to dim cyclic conditions for the post-exposure period.
Age-matched, dim-reared animals served as control samples.
Animals were euthanatized by overdose of barbiturate administered by an intraperitoneal injection (60 mg/kg bodyweight; Valabarb; Virbac Animal Health, Regents Park, NSW, Australia).
Eyes were oriented and embedded in O.C.T. compound (Tissue-Tek, Sakura, Japan) then snap frozen in liquid nitrogen and cryosectioned at […] Retinas for RNA extraction were immediately deposited in RNA stabilizer (RNAlater; Ambion, Austin, Tex.), prechilled on ice, and stored according to the manufacturer's instructions. RNA was then extracted from each sample. The samples were incubated at 4° C. overnight to allow adequate penetration of the preservative, and then stored at […] until required. The samples were processed in batches encompassing the entire time course, to ensure comparability. […]
TUNEL labeling was used to quantify photoreceptor apoptosis in cryosections, during and after BCL, with a protocol published previously. […]

## CC(=O)OCC(=O)[C@@]1(O)CC[C@H]2[C@@H]3CCC4=CC(=O)CC[C@]4(C)[C@@]3(F)[C@@H](O)C[C@@]21C [Fludrocortisone acetate, 9-α-Fiuoro-11 β. 17 α, 21-trihydroxy-4-pregnene-3, 20 dione acetate]
  prevention of macrophage recruitment (IBA1): more effective than TA; also recorded: superior
  prevention of photoreceptor death / cell death (TUNEL): more effective than TA; also recorded: superior
  retinal function (ERG, a- and b-wave amplitude): preserves retinal function; also recorded: superior
